According to paper PMC3691274, “Unraveling the Activation Mechanism of the Potato Tuber ADP-Glucose Pyrophosphorylase” (PLoS ONE, 2013):

What was measured:
[1] = molecular target: T1, Anabaena ADP-Glc PPase (Ana WT) (Nostoc sp. PCC 7120 = FACHB-418, UniProt P30521); assay: colorimetric Pi release assay (PPi hydrolysed by pyrophosphatase), Hill fit; format: biochemical; details: read-out: A 0.5
T1 construct: gene glgC; recombinant from plasmid pAnaE3a in E. coli AC70R1-504, purified, homotetramer, no tag mentioned
Excerpt: (§1) colorimetric Pi release assay (PPi hydrolysed by pyrophosphatase), Hill fit on Anabaena ADP-Glc PPase (Ana WT)

Anabaena ADP-Glc PPase [2] = molecular target: T2, Anabaena ADP-Glc PPase (Nostoc sp. PCC 7120 = FACHB-418, UniProt P30521, Q58A); assay: as above; format: biochemical; details: read-out: A 0.5
T2 construct: gene glgC; recombinant from plasmid pAnaE3a in E. coli AC70R1-504, purified, homotetramer, no tag mentioned
Excerpt: as §1

Anabaena ADP-Glc PPase [3] = molecular target: T3, Anabaena ADP-Glc PPase (Nostoc sp. PCC 7120 = FACHB-418, UniProt P30521, W96A); assay: as above; format: biochemical; details: read-out: A 0.5
T3 construct: gene glgC; recombinant from plasmid pAnaE3a in E. coli AC70R1-504, purified, homotetramer, no tag mentioned
Excerpt: as §1

[4] = molecular target: T4, potato tuber ADP-Glc PPase (StuS/StuL) (Solanum tuberosum, UniProt P23509+Q00081); details: read-out: A 0.5; allosteric activator; 1.5 mM ATP, 0.5 mM [14C]Glc-1P, 7 mM MgCl2, 50 mM HEPPS pH 8.0, 37°C
T4 sequence (P23509 71-521 limits assumed): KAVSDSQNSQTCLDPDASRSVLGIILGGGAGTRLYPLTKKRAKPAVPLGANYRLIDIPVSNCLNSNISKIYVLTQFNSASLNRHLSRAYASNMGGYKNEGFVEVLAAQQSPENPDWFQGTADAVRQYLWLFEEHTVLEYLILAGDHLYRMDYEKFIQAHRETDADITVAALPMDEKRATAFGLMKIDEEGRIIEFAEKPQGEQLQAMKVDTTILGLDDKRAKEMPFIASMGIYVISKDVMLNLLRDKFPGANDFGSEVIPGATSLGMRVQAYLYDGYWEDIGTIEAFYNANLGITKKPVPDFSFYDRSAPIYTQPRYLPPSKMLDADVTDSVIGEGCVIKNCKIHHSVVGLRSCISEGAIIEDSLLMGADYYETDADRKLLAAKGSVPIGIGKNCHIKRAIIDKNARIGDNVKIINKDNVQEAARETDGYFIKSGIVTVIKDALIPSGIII
T4 sequence (Q00081 7-470): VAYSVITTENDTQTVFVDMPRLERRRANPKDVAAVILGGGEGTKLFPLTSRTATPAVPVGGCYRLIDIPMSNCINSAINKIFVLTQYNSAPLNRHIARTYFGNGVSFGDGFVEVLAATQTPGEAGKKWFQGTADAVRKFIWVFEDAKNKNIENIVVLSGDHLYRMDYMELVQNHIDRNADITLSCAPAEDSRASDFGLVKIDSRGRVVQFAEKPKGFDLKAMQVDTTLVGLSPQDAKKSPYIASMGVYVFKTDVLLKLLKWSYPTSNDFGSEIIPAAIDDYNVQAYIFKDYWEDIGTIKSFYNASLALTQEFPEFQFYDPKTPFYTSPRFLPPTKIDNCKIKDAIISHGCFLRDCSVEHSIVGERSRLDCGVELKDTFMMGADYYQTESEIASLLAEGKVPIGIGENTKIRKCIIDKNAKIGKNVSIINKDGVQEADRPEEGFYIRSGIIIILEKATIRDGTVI

T1 sequence (P30521 whole entry): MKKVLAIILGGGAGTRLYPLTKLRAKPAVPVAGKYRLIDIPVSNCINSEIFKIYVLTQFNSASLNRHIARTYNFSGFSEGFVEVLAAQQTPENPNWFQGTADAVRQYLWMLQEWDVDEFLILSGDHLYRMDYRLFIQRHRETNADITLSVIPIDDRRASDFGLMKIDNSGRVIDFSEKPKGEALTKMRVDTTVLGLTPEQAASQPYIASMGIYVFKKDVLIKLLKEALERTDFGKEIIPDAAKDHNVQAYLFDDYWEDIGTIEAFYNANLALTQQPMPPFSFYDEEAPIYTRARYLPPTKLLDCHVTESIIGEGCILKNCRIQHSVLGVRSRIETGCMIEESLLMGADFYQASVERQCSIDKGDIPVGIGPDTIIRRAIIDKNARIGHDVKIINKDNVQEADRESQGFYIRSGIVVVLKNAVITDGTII
T2 sequence (P30521 whole entry Q58A): as the sequence (P30521 whole entry) above, with Q58A counted along it
T3 sequence (P30521 whole entry W96A): as the sequence (P30521 whole entry) above, with W96A counted along it

SMILES: O=C(O)[C@H](O)COP(=O)(O)O [3-PGA, 3-phosphoglycerate]
- EC50 [1]: 76 ± 4 µM
- EC50 (Anabaena ADP-Glc PPase [2]): 95 ± 8 µM
- EC50 (Anabaena ADP-Glc PPase [3]): 83 ± 8 µM
- EC50 [4]: 54 ± 4 µM
